Data taken from patent EP2629618B1, “AGROCHEMICAL CO[…]” (Syngenta Limited, priority 2010, dated 2012).
Read-outs that look alike come from different tables or passages of the source.

System: Septoria tritici
Assay: curative testing against Septoria tritici on wheat plants in pots, visual score of disease severity
Type: in vivo
Conditions: Zymoseptoria tritici, adjuvant (if any) 0.1 %w/v, spray 200l/ha, read-out: % Efficacy; for Emax at 3 µg/mL: isopyrazam 3 mg per litre; for Emax at 10 µg/mL: isopyrazam 10 mg per litre; for Emax at 30 µg/mL: isopyrazam 30 mg per litre; for Emax at 100 µg/mL: isopyrazam 100 mg per litre
Method: The test data relate to curative testing against Septoria tritici on wheat. The wheat plants in pots are inoculated 3 to 5 days prior to spraying as indicated. The isopyrazam is formulated as an aqueous suspension concentrate formulation containing 250 g/l of isopyrazam. The suspension concentrate formulation is diluted to the concentrations of isopyrazam shown in the Tables with water prior to spraying. When adjuvant is included it is used at 0.1 %w/v in the spray dilution unless otherwise indicated. An inert non-adjuvant additive is included in all treatments to provide spray retention. The spray application is 200l/ha.
Three assessments are made per pot of wheat with […] fully randomised. The three replicate pots are visually assessed and given a score of disease severity. The percent efficacy corresponds to the reduction in average disease severity in the treated pots compared to the untreated pots as a percentage of the average disease severity of the untreated pots. Each Table represents a side-by-side experiment.

[1] = Table 2, treatment 4 days, assessment 18 days after inoculation
[2] = Table 3, treatment 4 days, assessment 17 days after inoculation
[3] = Table 4, treatment 4 days, assessment 18 days after inoculation
[4] = Table 5, treatment 3 days, assessment 19 days after inoculation
[5] = Table 6, treatment 4 days, assessment 17 days after inoculation
[6] = Table 7, treatment 4 days, assessment 18 days after inoculation

Structure (SMILES): CC(C)C1C2CCC1c1c(NC(=O)c3cn(C)nc3C(F)F)cccc12 (stereo not drawn) [isopyrazam, Isopyrazam]
- Emax at 3 µg/mL [1]: 32%
- Emax at 10 µg/mL [1]: 36%
- Emax at 30 µg/mL [1]: 47%
- Emax at 100 µg/mL [1]: 41%
- Emax at 3 µg/mL [2]: 17.9%
- Emax at 10 µg/mL [2]: -0.53%
- Emax at 30 µg/mL [2]: 10%
- Emax at 100 µg/mL [2]: 8.9%
- Emax at 3 µg/mL [3]: 41%
- Emax at 10 µg/mL [3]: 39%
- Emax at 30 µg/mL [3]: 29%
- Emax at 100 µg/mL [3]: 25%
- Emax at 3 µg/mL [4]: 8.8%
- Emax at 10 µg/mL [4]: 9.4%
- Emax at 30 µg/mL [4]: 14%
- Emax at 100 µg/mL [4]: 0.59%
- Emax at 3 µg/mL [5]: 9.1%
- Emax at 10 µg/mL [5]: 6.8%
- Emax at 30 µg/mL [5]: 19%
- Emax at 100 µg/mL [5]: 14%
- Emax at 3 µg/mL [6]: 5.1%
- Emax at 10 µg/mL [6]: 15%
- Emax at 30 µg/mL [6]: -18%
- Emax at 100 µg/mL [6]: 32%
